Among the test systems are COLO 205; HCC 2998; HCT-15; HL-60; HT-29; MDA-N; Malme-3M; NCI-H23; NCI-H522; OVCAR-8; PC-3; SF-268; SF-295; SK-MEL-28; SN12C; SNB-75; SR; UACC-257; HOP-92; RXF 393.
Common to all, as to test: DTP human tumour cell line panel, 48 h

Data on eleven compounds can be found in ChEMBL document CHEMBL1201862, “PubChem BioAssay data set” (2004).

SMILES strings stand for the structures.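 Test compounds were applied to cells in 96-well plates for 48 hours at 5 doses. The concentration for 50% growth inhibition is given as GI50.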 The source made the active and inactive calls. Cut-off read from the data, not from the text of the source: active = GI50 up to about 1.1 µM and inactive = higher. Bounds are passed on as bounds.

A word on the GI50: it is the concentration at which growth is held to half of that of the control.

Regarding `O=c1c2cc([N+](=O)[O-])cnc2sn1-c1ccc([N+](=O)[O-])cc1`, the GI50 is 16.9 µM (inactive) with COLO 205; 43.8 µM (inactive) in the test on HCC 2998; 28.5 µM with HCT-15; 26 µM (inactive) with HL-60; 21.8 µM (inactive) in the test on HT-29; 87.7 µM (inactive) with MDA-N. Besides, the GI50 in the test on Malme-3M was 14.2 µM (inactive); with NCI-H23 it was 31.2 µM (inactive); in the test with NCI-H522, 7.28 µM (inactive); with OVCAR-8 it was 42.5 µM (inactive); in the test with PC-3, 22 µM (inactive); with SF-268, 27.1 µM (inactive). The GI50 in the test with SF-295 is 38.2 µM (inactive); in the test on SK-MEL-28, 82.4 µM (inactive); in the test with SN12C, 47.2 µM (inactive); in the test with SNB-75, 38.1 µM (inactive); in the test with SR, 22.1 µM (inactive); in the test with UACC-257, > 100 µM (inactive).

For the compound `O[C@H]1[C@@H]2OC[C@@H](O)[C@H](OCc3ccccc3)[C@@](COCc3ccccc3)(O2)[C@@H]1OCc1ccccc1`, the GI50 is 18.2 µM (inactive) with COLO 205; 16.4 µM with HCT-15; 32.6 µM (inactive) in the test with HL-60; 10.2 µM (inactive) in the test with HOP-92; 15.2 µM (inactive) in the test with HT-29; 15.4 µM (inactive) in the test on MDA-N. In addition, the GI50 in the test with Malme-3M is 13.6 µM (inactive); with NCI-H23, 17.1 µM (inactive); in the test with NCI-H522, 13.7 µM (inactive); in the test on OVCAR-8 it was 16.7 µM (inactive); in the test with PC-3 it was 13.2 µM (inactive); with RXF 393, 20.2 µM (inactive). For the same compound, the GI50 in the test with SF-268 is 22.2 µM (inactive); with SF-295, 12.6 µM (inactive); in the test on SK-MEL-28, 14.1 µM (inactive); in the test on SN12C it was 14.7 µM (inactive); in the test with SNB-75, 2.39 µM (inactive); with SR, 38.5 µM (inactive). Further, the GI50 in the test on UACC-257 is 14.8 µM (inactive).

Consider `C=C=C(C)[Si](C)(C)C`, for which the GI50 with COLO 205 is > 100 µM (inactive); with HCC 2998 it was > 100 µM (inactive); in the test with HCT-15 it was > 100 µM; in the test on HL-60 it was 23.7 µM (inactive); in the test on HT-29 it was > 100 µM (inactive); with MDA-N, > 100 µM (inactive). Moreover, the GI50 in the test on Malme-3M, with NCI-H23, in the test with NCI-H522, with OVCAR-8, in the test with PC-3 and with RXF 393 was > 100 µM (inactive) in each case. The GI50 is > 100 µM (inactive) with SF-268; > 100 µM (inactive) in the test on SF-295; > 100 µM (inactive) in the test with SK-MEL-28; > 100 µM (inactive) in the test on SN12C; 96.2 µM (inactive) with SNB-75; > 100 µM (inactive) in the test with SR. Besides, the GI50 with UACC-257 was > 100 µM (inactive).

Take `CS/C(Nc1ccccc1)=C1\C(=O)N(c2ccccc2)N=C1C`: the GI50 with COLO 205 was > 100 µM (inactive); in the test with HCC 2998, > 100 µM (inactive); with HCT-15, > 100 µM; in the test on HL-60, > 100 µM (inactive); in the test with HT-29, > 100 µM (inactive); with MDA-N, > 100 µM (inactive). In addition, the GI50 in the test with Malme-3M was > 100 µM (inactive); in the test on NCI-H23, > 100 µM (inactive); in the test on NCI-H522, 35.1 µM (inactive); in the test on OVCAR-8 it was > 100 µM (inactive); with PC-3, > 100 µM (inactive); in the test with RXF 393, > 100 µM (inactive). The GI50 with SF-268, in the test with SK-MEL-28, in the test on SN12C, in the test with SNB-75, with SR and with UACC-257 was > 100 µM (inactive) throughout.

Take `Cc1c(-c2ccccn2)ccc2ccccc12`: the GI50 is 41.4 µM (inactive) in the test on COLO 205; 37.8 µM (inactive) with HCC 2998; 27.7 µM in the test on HCT-15; 44.6 µM (inactive) in the test on HL-60; 23 µM (inactive) with HOP-92; 41.7 µM (inactive) with HT-29. The GI50 was 61 µM (inactive) in the test on MDA-N; 69.7 µM (inactive) in the test with Malme-3M; 90.2 µM (inactive) with NCI-H23; 26.4 µM (inactive) in the test on OVCAR-8; 47.3 µM (inactive) with PC-3; 29.1 µM (inactive) in the test with RXF 393. Besides, the GI50 was 54 µM (inactive) in the test with SF-268; 83.8 µM (inactive) in the test on SF-295; 85.5 µM (inactive) in the test on SK-MEL-28; 61.1 µM (inactive) in the test on SN12C; 27.9 µM (inactive) in the test on SNB-75; 56.1 µM (inactive) with SR. In the test on UACC-257, the GI50 is > 100 µM (inactive).

`N=C(N)NCCCC(NC(=O)c1c2ccccc2nc2ccccc12)C(=O)O` (stereo unspecified): the GI50 with COLO 205 was > 100 µM (inactive); in the test on HCC 2998, > 100 µM (inactive); in the test with HCT-15, > 100 µM; in the test with HOP-92 it was > 100 µM (inactive); with HT-29 it was > 100 µM (inactive); in the test on MDA-N it was > 100 µM (inactive). The GI50 in the test on NCI-H23, with NCI-H522, in the test with OVCAR-8, with PC-3, with SF-268 and with SF-295 was > 100 µM (inactive) each time. In addition, the GI50 with SK-MEL-28, in the test on SN12C, in the test on SNB-75, in the test on SR and in the test with UACC-257 was > 100 µM (inactive) in each case.

As for `COCC1OCCN1C` (stereo unspecified), the GI50 in the test on COLO 205 is > 100 µM (inactive); with HCT-15, > 100 µM; in the test with HOP-92 it was > 100 µM (inactive); with HT-29, > 100 µM (inactive); with MDA-N it was > 100 µM (inactive); in the test with Malme-3M, > 100 µM (inactive). The GI50 in the test on NCI-H23, in the test on NCI-H522, with OVCAR-8, with PC-3, with RXF 393 and in the test on SF-268 was > 100 µM (inactive) in each case. The GI50 in the test on SF-295, in the test on SNB-75, with SR and with UACC-257 was > 100 µM (inactive) in each case.

For the compound `CCOC(=O)Nc1c(C#N)[n+]([O-])c2cc(Cl)c(Cl)cc2[n+]1[O-]`, the GI50 in the test with COLO 205 was 15 µM (inactive); in the test with HCT-15, 5.13 µM; in the test with HOP-92 it was 5.4 µM (inactive); in the test on HT-29 it was 12 µM (inactive); in the test with MDA-N, 16.1 µM (inactive); in the test with Malme-3M, 15.2 µM (inactive). The GI50 is 19.7 µM (inactive) in the test with NCI-H23; 13.4 µM (inactive) with OVCAR-8; 7.28 µM (inactive) in the test with PC-3; 15.1 µM (inactive) in the test on RXF 393; 15.3 µM (inactive) in the test on SF-268; 14.6 µM (inactive) in the test with SF-295. The GI50 in the test with SK-MEL-28 was 14.6 µM (inactive); in the test on SN12C it was 16.4 µM (inactive); in the test on SNB-75 it was 15.4 µM (inactive); in the test on SR it was 4.09 µM (inactive); in the test with UACC-257, 16.5 µM (inactive).

In the case of `CN(/N=C/c1cccs1)c1ccc([N+](=O)[O-])cc1[N+](=O)[O-]`, the GI50 is > 100 µM (inactive) with COLO 205; > 100 µM (inactive) in the test with HCC 2998; > 100 µM with HCT-15; > 100 µM (inactive) in the test on HL-60; > 100 µM (inactive) with HT-29; > 100 µM (inactive) in the test on MDA-N. Further, the GI50 in the test on NCI-H23, in the test with NCI-H522, in the test on OVCAR-8, in the test on PC-3, in the test with RXF 393 and with SF-268 was > 100 µM (inactive) each time. Besides, the GI50 in the test with SF-295 is > 100 µM (inactive); in the test on SK-MEL-28, > 100 µM (inactive); with SN12C, > 100 µM (inactive); in the test on SNB-75 it was 77.8 µM (inactive); in the test with SR it was > 100 µM (inactive); in the test with UACC-257 it was > 100 µM (inactive).

Regarding `CC(=O)OCC(OC(C)=O)C(OC(C)=O)C(OC(C)=O)C(C=NN(C(C)=O)S(=O)(=O)c1ccc(/C=C2\NC(=O)N(C)C2=O)cc1)OC(C)=O` (stereo unspecified), the GI50 in the test with COLO 205 was 26.2 µM (inactive); with HCC 2998, 30.5 µM (inactive); with HCT-15, 25.4 µM; in the test with HT-29 it was 34.9 µM (inactive); with MDA-N, 35.7 µM (inactive); in the test on Malme-3M, 25.5 µM (inactive). The GI50 in the test with NCI-H23 is 34.5 µM (inactive); with NCI-H522, 23.7 µM (inactive); with OVCAR-8, 25.6 µM (inactive); in the test with PC-3, 40.1 µM (inactive); with RXF 393, 20.5 µM (inactive); in the test on SF-268, 30.1 µM (inactive). In addition, the GI50 is 95.9 µM (inactive) in the test with SF-295; 27.8 µM (inactive) with SN12C; 33.7 µM (inactive) with SNB-75; 23.4 µM (inactive) in the test with SR; 43.9 µM (inactive) with UACC-257.

On to `CCOC(=O)/C(C#N)=C/c1ccc(CO)o1`, for which the GI50 is > 100 µM (inactive) in the test with COLO 205; > 100 µM (inactive) in the test with HCC 2998; > 100 µM in the test with HCT-15; > 100 µM (inactive) with HT-29; > 100 µM (inactive) in the test with MDA-N; > 100 µM (inactive) in the test on Malme-3M. The GI50 in the test with NCI-H23, in the test with NCI-H522, in the test with OVCAR-8, with PC-3, with RXF 393 and with SF-268 was > 100 µM (inactive) each time. In addition, the GI50 in the test with SF-295, with SK-MEL-28, in the test on SN12C, with SNB-75, in the test on SR and in the test with UACC-257 was > 100 µM (inactive) in each case.
